Results on eight molecules are retold here after patent US10344060B2 (priority 2013, dated 2019).

Common to all, as to assay: cell-based
Assay [1] deals with mNav1.7 (Mus musculus, UniProt Q62205). Conditions: for mNav1.7/hNav1.7: ratio of PX tonic IC50, mouse Nav1.7 over human Nav1.7; for IC50: PatchXpress, tonic block, mouse Nav1.7, read-out: PX mNav1.7 Tonic IC50.
Assay [2] addresses rNav1.7 (Rattus norvegicus, UniProt O08562). Particulars: for rNav1.7/hNav1.7: ratio of PX tonic IC50, rat Nav1.7 over human Nav1.7; for IC50: PatchXpress, tonic block, rat Nav1.7, read-out: PX rNav1.7 Tonic IC50.
The target of assay [3] is hNav1.7 (Homo sapiens, UniProt Q15858). In kind it is cell-based. Conditions: PatchXpress, tonic block, human Nav1.7; read-out: PX hNav1.7 Tonic IC50.

Broadly, the IC50 is the point on the concentration scale where inhibition reaches its midpoint.

Sequence of rNav1.7 (O08562 whole entry): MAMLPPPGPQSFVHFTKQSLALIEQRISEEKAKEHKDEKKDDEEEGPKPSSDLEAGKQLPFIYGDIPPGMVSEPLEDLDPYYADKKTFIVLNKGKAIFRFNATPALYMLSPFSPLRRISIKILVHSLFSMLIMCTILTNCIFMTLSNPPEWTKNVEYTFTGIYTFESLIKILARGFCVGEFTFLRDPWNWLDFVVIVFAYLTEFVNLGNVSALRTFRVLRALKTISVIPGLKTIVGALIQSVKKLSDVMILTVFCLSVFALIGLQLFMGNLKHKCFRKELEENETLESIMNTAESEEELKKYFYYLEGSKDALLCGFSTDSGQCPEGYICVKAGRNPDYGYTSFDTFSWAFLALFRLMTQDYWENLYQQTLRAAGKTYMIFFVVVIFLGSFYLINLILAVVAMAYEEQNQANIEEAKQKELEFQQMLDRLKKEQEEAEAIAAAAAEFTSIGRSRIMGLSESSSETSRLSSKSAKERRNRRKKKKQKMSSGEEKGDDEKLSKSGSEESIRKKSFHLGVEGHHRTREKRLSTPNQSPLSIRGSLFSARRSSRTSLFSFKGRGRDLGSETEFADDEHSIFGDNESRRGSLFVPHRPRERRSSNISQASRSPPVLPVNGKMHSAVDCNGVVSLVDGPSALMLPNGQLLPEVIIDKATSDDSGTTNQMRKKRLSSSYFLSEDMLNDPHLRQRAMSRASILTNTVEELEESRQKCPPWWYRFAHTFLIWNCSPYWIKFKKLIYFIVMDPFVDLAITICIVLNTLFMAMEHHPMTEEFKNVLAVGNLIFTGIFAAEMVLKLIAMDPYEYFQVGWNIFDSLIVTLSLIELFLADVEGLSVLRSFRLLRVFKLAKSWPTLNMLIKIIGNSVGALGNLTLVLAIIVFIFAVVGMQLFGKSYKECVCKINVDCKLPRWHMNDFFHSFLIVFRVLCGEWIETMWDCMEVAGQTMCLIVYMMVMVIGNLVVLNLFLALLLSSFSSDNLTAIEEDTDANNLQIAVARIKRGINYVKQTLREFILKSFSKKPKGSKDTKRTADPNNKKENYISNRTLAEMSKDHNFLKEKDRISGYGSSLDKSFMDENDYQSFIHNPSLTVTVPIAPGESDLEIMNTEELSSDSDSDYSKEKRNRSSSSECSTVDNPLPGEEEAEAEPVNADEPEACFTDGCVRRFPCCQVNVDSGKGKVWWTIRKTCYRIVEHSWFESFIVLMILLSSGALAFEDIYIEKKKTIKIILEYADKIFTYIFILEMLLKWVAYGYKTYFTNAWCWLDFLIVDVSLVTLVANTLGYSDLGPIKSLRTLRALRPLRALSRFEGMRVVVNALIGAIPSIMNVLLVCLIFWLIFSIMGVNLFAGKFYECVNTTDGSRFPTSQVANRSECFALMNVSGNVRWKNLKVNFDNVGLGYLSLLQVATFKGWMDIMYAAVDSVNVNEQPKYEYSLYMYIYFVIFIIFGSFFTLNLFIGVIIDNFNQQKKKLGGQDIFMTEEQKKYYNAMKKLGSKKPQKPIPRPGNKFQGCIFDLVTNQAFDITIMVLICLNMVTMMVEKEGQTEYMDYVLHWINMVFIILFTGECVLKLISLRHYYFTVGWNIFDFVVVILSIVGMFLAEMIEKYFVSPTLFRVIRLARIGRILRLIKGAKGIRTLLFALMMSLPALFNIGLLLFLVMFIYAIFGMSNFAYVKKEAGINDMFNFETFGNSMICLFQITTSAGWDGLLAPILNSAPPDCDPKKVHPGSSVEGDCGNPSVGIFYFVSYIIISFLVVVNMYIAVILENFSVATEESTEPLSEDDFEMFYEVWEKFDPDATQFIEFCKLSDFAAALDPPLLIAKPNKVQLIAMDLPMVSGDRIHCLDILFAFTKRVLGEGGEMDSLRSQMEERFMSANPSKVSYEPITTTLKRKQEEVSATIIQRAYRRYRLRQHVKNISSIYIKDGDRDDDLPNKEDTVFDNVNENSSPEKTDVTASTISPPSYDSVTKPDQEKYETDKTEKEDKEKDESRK
Sequence of mNav1.7 (Q62205 whole entry): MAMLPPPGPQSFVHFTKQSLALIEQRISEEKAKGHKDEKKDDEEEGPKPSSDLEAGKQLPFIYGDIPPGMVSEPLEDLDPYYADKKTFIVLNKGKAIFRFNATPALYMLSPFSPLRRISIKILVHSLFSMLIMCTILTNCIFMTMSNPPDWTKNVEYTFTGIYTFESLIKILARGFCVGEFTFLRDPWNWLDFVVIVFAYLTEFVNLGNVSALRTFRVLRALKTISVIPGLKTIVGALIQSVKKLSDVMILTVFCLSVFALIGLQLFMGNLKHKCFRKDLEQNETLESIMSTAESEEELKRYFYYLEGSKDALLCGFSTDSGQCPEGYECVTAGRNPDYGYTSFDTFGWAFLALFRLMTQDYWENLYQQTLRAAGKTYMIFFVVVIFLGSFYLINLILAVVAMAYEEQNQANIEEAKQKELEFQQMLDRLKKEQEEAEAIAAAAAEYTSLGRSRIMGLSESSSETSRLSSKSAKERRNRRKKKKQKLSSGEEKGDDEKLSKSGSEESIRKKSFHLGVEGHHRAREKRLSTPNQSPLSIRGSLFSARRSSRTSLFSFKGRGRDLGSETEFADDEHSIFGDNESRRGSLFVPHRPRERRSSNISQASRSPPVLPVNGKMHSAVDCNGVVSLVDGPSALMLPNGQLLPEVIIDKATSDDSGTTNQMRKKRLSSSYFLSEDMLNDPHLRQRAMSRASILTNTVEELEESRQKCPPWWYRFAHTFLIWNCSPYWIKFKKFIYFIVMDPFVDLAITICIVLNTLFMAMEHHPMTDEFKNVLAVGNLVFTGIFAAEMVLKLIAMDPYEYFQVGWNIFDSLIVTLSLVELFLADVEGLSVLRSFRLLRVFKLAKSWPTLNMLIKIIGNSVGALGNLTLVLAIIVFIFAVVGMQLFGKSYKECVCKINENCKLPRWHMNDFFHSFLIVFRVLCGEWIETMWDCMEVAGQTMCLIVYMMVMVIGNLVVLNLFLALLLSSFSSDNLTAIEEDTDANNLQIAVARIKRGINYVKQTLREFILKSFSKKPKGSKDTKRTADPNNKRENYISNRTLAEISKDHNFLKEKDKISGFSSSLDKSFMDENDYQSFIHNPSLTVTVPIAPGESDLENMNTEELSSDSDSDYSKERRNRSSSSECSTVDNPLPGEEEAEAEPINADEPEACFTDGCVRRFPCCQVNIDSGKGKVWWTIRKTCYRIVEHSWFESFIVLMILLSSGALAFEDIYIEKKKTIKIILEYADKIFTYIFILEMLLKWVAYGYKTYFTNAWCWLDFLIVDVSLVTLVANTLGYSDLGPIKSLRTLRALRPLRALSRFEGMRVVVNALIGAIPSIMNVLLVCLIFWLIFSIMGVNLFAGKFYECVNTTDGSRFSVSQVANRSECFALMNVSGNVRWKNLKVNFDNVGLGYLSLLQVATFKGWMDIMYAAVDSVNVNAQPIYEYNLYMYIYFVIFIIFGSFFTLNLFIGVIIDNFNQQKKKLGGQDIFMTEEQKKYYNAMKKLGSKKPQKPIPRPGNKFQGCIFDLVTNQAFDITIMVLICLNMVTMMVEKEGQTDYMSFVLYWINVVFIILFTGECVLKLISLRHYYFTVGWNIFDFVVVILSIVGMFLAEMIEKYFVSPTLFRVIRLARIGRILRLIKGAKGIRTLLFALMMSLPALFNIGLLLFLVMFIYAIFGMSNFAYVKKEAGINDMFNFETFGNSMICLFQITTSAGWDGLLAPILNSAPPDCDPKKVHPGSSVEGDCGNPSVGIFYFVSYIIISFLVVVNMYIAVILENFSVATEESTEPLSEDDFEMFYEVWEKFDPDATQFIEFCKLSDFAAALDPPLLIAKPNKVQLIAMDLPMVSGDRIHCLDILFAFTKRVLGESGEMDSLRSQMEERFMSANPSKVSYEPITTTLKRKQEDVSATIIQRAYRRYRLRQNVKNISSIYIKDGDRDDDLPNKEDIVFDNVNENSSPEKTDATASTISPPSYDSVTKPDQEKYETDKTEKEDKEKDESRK

Consider `CCCC[C@@H]1NC(=O)[C@H](Cc2c[nH]c3ccccc23)NC(=O)[C@H](CCCCN)NC(=O)[C@H](CCC(N)=O)NC(=O)[C@@H](NC(=O)[C@H](Cc2ccc(O)cc2)NC(=O)[C@@H](N)Cc2cn(CCOCCOCCOCCOCCOCCOCCOCCOCCOCCOCCN)nn2)CSSC[C@@H]2NC(=O)[C@@H]3CSSC[C@@H](C(=O)N[C@@H](CCCNC(=N)N)C(=O)N[C@@H](CCCCN)C(=O)N[C@H](C(=O)N[C@H](C(N)=O)[C@@H](C)CC)[C@@H](C)CC)NC(=O)[C@H](Cc4c[nH]c5ccccc45)NC(=O)[C@H](CC(C)C)NC(=O)[C@H](CCCCN)NC(=O)[C@H](CSSC[C@H](NC(=O)[C@H]([C@@H](C)O)NC(=O)[C@H](Cc4c[nH]c5ccccc45)NC1=O)C(=O)N[C@@H](CC(=O)O)C(=O)N[C@@H](CO)C(=O)N[C@@H](CCCCN)C(=O)N[C@@H](CCCNC(=N)N)C(=O)N[C@@H](C)C(=O)N3)NC(=O)[C@H](CCCNC(=N)N)NC(=O)[C@H](CC(C)C)NC(=O)CNC(=O)[C@H](CCC(=O)O)NC2=O` [Atz(NPEG9)-[Nle6]JzTx-V(1-29)], for which the mNav1.7/hNav1.7 in assay [1] was determined as 1.65. In addition, in assay [2], the rNav1.7/hNav1.7 is 0.22.
For the molecule `C#CC[C@@H]1NC(=O)[C@H](CC(=O)O)NC(=O)[C@@H]2CSSC[C@@H]3NC(=O)[C@H](CCCNC(=N)N)NC(=O)[C@H](CC(C)C)NC(=O)CNC(=O)[C@H](CCC(=O)O)NC(=O)[C@H](CSSC[C@H](NC(=O)[C@H](Cc4ccc(O)cc4)NC(=O)[C@@H](N)CC#N)C(=O)N[C@@H](CCC(N)=O)C(=O)N[C@@H](CCCCN)C(=O)N[C@@H](Cc4c[nH]c5ccccc45)C(=O)N[C@@H](CCCC)C(=O)N[C@@H](Cc4c[nH]c5ccccc45)C(=O)N[C@@H]([C@@H](C)O)C(=O)N2)NC(=O)[C@H](CSSC[C@@H](C(=O)N[C@@H](CCCNC(=N)N)C(=O)N[C@@H](CCCCN)C(=O)N[C@@H](CCC(=O)O)C(=O)N[C@H](C(N)=O)[C@@H](C)CC)NC(=O)[C@H](Cc2c[nH]c4ccccc24)NC(=O)[C@H](CC(C)C)NC(=O)[C@H](CCCCN)NC3=O)NC(=O)[C@H](C)NC(=O)[C@H](CCCNC(=N)N)NC(=O)[C@H](CCCCN)NC1=O` [CyA-[Nle6; Pra11; Glu28]JzTx-V(1-29)], in assay [1], the IC50 was found to be 4.04 nM and the mNav1.7/hNav1.7 stood at 20.87. In assay [2], the IC50 is 2.24 nM and the rNav1.7/hNav1.7 came to 11.58.
Regarding `C#CC[C@H](NC(=O)[C@@H](N)CCC(=O)O)C(=O)N[C@H]1CSSC[C@@H]2NC(=O)[C@@H]3CSSC[C@@H](C(=O)N[C@@H](CCCNC(=N)N)C(=O)N[C@@H](CCCCN)C(=O)N[C@@H](CCC(=O)O)C(=O)N[C@H](C(N)=O)[C@@H](C)CC)NC(=O)[C@H](Cc4c[nH]c5ccccc45)NC(=O)[C@H](CC(C)C)NC(=O)[C@H](CCCCN)NC(=O)[C@H](CSSC[C@H](NC(=O)[C@H]([C@@H](C)O)NC(=O)[C@H](Cc4c[nH]c5ccccc45)NC(=O)[C@H](CCCC)NC(=O)[C@H](Cc4c[nH]c5ccccc45)NC(=O)[C@H](CCCCN)NC(=O)[C@H](CCC(N)=O)NC1=O)C(=O)N[C@@H](CC(=O)O)C(=O)N[C@@H](CO)C(=O)N[C@@H](CCCCN)C(=O)N[C@@H](CCCNC(=N)N)C(=O)N[C@@H](CCC(=O)O)C(=O)N3)NC(=O)[C@H](CCCNC(=N)N)NC(=O)[C@H](CC(C)C)NC(=O)CNC(=O)[C@H](CCC(=O)O)NC2=O` [Glu-[Pra1; Nle6; Glu14, 28]JzTx-V(1-29)], in assay [1], the IC50 came to 16.1 nM and the mNav1.7/hNav1.7 is given as 28.63. Moreover, in assay [2], the IC50 turned out to be 3.34 nM and the rNav1.7/hNav1.7 turned out to be 5.94.
For `C#CC[C@H](N)C(=O)N[C@@H](Cc1ccc(O)cc1)C(=O)N[C@H]1CSSC[C@@H]2NC(=O)[C@@H]3CSSC[C@@H](C(=O)N[C@@H](CCCNC(=N)N)C(=O)N[C@@H](CCCCN)C(=O)N[C@@H](CCC(=O)O)C(=O)N[C@H](C(N)=O)[C@@H](C)CC)NC(=O)[C@H](Cc4c[nH]c5ccc(Br)cc45)NC(=O)[C@H](CC(C)C)NC(=O)[C@H](CCCCN)NC(=O)[C@H](CSSC[C@H](NC(=O)[C@H]([C@@H](C)O)NC(=O)[C@H](Cc4c[nH]c5ccccc45)NC(=O)[C@H](CCCC)NC(=O)[C@H](Cc4c[nH]c5ccccc45)NC(=O)[C@H](CCCCN)NC(=O)[C@H](CCC(N)=O)NC1=O)C(=O)N[C@@H](CC(=O)O)C(=O)N[C@@H](CO)C(=O)N[C@@H](CCCCN)C(=O)N[C@@H](CCCNC(=N)N)C(=O)N[C@@H](C)C(=O)N3)NC(=O)[C@H](CCCNC(=N)N)NC(=O)[C@H](CC(C)C)NC(=O)CNC(=O)[C@H](CCC(=O)O)NC2=O` [Pra-[Nle6; 5-BrW24; Glu28]JzTx-V(1-29)], in that order: 0.911 nM, 23.34, 2.43 nM and 62.26.
For `C#CC[C@H](N)C(=O)N[C@@H](Cc1ccc(O)cc1)C(=O)N[C@H]1CSSC[C@@H]2NC(=O)[C@@H]3CSSC[C@@H](C(=O)N[C@@H](CCCNC(=N)N)C(=O)N[C@@H](CCCCN)C(=O)N[C@@H](CCC(=O)O)C(=O)N[C@H](C(N)=O)[C@@H](C)CC)NC(=O)[C@H](Cc4c[nH]c5ccccc45)NC(=O)[C@H](C4CCCCC4)NC(=O)[C@H](CCCCN)NC(=O)[C@H](CSSC[C@H](NC(=O)[C@H]([C@@H](C)O)NC(=O)[C@H](Cc4c[nH]c5ccccc45)NC(=O)[C@H](CCCC)NC(=O)[C@H](Cc4c[nH]c5ccccc45)NC(=O)[C@H](CCCCN)NC(=O)[C@H](CCC(N)=O)NC1=O)C(=O)N[C@@H](CC(=O)O)C(=O)N[C@@H](CO)C(=O)N[C@@H](CCCCN)C(=O)N[C@@H](CCCNC(=N)N)C(=O)N[C@@H](C)C(=O)N3)NC(=O)[C@H](CCCNC(=N)N)NC(=O)[C@H](CC(C)C)NC(=O)CNC(=O)[C@H](CCC(=O)O)NC2=O` [Pra-[Nle6; Chg23; Glu28]JzTx-V(1-29)], in that order: 0.884 nM, 1.81, 3.27 nM and 6.68.
For `C#CC[C@H](N)C(=O)N[C@@H](Cc1ccc(O)cc1)C(=O)N[C@H]1CSSC[C@@H]2NC(=O)[C@@H]3CSSC[C@@H](C(=O)N[C@@H](CCCNC(=N)N)C(=O)N[C@@H](CCCCN)C(=O)N[C@@H](CCC(=O)O)C(=O)N[C@@H](Cc4ccccc4)C(N)=O)NC(=O)[C@H](Cc4c[nH]c5ccccc45)NC(=O)[C@H](CC(C)C)NC(=O)[C@H](CCCCN)NC(=O)[C@H](CSSC[C@H](NC(=O)[C@H]([C@@H](C)O)NC(=O)[C@H](Cc4c[nH]c5ccccc45)NC(=O)[C@H](CCCC)NC(=O)[C@H](Cc4c[nH]c5ccccc45)NC(=O)[C@H](CCCCN)NC(=O)[C@H](CCC(N)=O)NC1=O)C(=O)N[C@@H](CC(=O)O)C(=O)N[C@@H](CO)C(=O)N[C@@H](CCCCN)C(=O)N[C@@H](CCCNC(=N)N)C(=O)N[C@@H](C)C(=O)N3)NC(=O)[C@H](CCCNC(=N)N)NC(=O)[C@H](CC(C)C)NC(=O)CNC(=O)[C@H](CCC(=O)O)NC2=O` [Pra-[Nle6; Glu28; Phe29]JzTx-V(1-29)], in that order: 3.45 nM, 8.90, 0.296 nM and 0.76.
Turning to `C#CC[C@H](N)C(=O)N[C@@H](Cc1ccc(O)cc1)C(=O)N[C@H]1CSSC[C@@H]2NC(=O)[C@@H]3CSSC[C@@H](C(=O)N[C@@H](CCCNC(=N)N)C(=O)N[C@@H](CCCCN)C(=O)N[C@@H](CCC(=O)O)C(=O)N[C@@H](Cc4c[nH]c5ccccc45)C(N)=O)NC(=O)[C@H](Cc4c[nH]c5ccccc45)NC(=O)[C@H](CC(C)C)NC(=O)[C@H](CCCCN)NC(=O)[C@H](CSSC[C@H](NC(=O)[C@H]([C@@H](C)O)NC(=O)[C@H](Cc4c[nH]c5ccccc45)NC(=O)[C@H](CCCC)NC(=O)[C@H](Cc4c[nH]c5ccccc45)NC(=O)[C@H](CCCCN)NC(=O)[C@H](CCC(N)=O)NC1=O)C(=O)N[C@@H](CC(=O)O)C(=O)N[C@@H](CO)C(=O)N[C@@H](CCCCN)C(=O)N[C@@H](CCCNC(=N)N)C(=O)N[C@@H](C)C(=O)N3)NC(=O)[C@H](CCCNC(=N)N)NC(=O)[C@H](CC(C)C)NC(=O)CNC(=O)[C@H](CCC(=O)O)NC2=O` [Pra-[Nle6; Glu28; Trp29]JzTx-V(1-29)], in assay [1], the IC50 amounted to 3.11 nM and the mNav1.7/hNav1.7 amounted to 8.82. In assay [2], the IC50 stood at 0.097 nM and the rNav1.7/hNav1.7 amounted to 0.27. For the same molecule, in assay [3], the IC50 was 0.352 nM.
Turning to `CC[C@H](C)[C@H](NC(=O)[C@H](CCCCN)NC(=O)[C@H](CCCNC(=N)N)NC(=O)[C@@H]1CSSC[C@@H]2NC(=O)[C@H](C)NC(=O)[C@H](CCCNC(=N)N)NC(=O)[C@H](CCCCN)NC(=O)[C@H](CO)NC(=O)[C@H](CC(=O)O)NC(=O)[C@@H]3CSSC[C@H](NC(=O)[C@H](CCC(=O)O)NC(=O)[C@H](CC(C)C)NC(=O)CNC(=O)[C@H](CCC(=O)O)NC(=O)[C@H](CSSC[C@H](NC(=O)[C@@H](N)Cc4ccc(O)cc4)C(=O)N[C@@H](CCC(N)=O)C(=O)N[C@@H](CCCCN)C(=O)N[C@@H](Cc4c[nH]c5ccccc45)C(=O)N[C@@H](CCSC)C(=O)N[C@@H](Cc4c[nH]c5ccccc45)C(=O)N[C@@H]([C@@H](C)O)C(=O)N3)NC2=O)C(=O)N[C@@H](CCCCN)C(=O)N[C@@H](CC(C)C)C(=O)N[C@@H](Cc2c[nH]c3ccccc23)C(=O)N1)C(=O)N[C@@H](Cc1c[nH]c2ccccc12)C(N)=O` [[Glu20, Trp29]JzTx-V], in assay [1], the IC50 was found to be 5.08 nM and the mNav1.7/hNav1.7 came out at 3.20. Further, in assay [2], the IC50 was found to be 1.3 nM and the rNav1.7/hNav1.7 is reported as 0.82.
